We go through two molecules from patent US20260102401A1, “Combination Therapies” (MIRATI THERAPEUTICS, INC., priority 2022, published 2026).

The experiment relates to H2122 cells. The experiment is described as follows: H2122 cell-line derived xenograft model, tumor volumes. Format: in vivo, nude/nude mice. The note with it: for tumor growth inhibition: Day 17, single agent, H2122 xenograft, 100 mg/kg Compound 478 or 50 mg/kg olaparib p.o. daily; for Average Tumor Volumes: H2122 tumor bearing mice, 100 mg/kg Compound 478 and/or 50 mg/kg olaparib p.o. daily. On the procedure:
Immunocompromised nude/nude mice were inoculated in the right hind flank with cells or patient derived tumor samples harboring a KRas G12C mutation. When tumor volumes reach ˜300 mm^3 in size, the mice were divided into four groups of 5 mice each. The first group was administered vehicle only. […] The fourth group was orally administered the single agent dose of the KRas G12C inhibitor in combination with the single agent dose of the PARP inhibitor at the matched schedule. The treatment period was 17 days. Tumor volumes were measured using a caliper every two-three days and tumor volumes are calculated by the formula: […].
For example, twenty nude/nude mice were inoculated in the right hind limb with 5×10^6 H2122 cells. When tumor volume reached ˜300 mm^3 (Study Day 1), 5 mice in each of the […] groups were administered p.o. daily for 32 days: vehicle only (10% Captisol in 50 mM citrate buffer pH5.0), 100 mg/kg of KRas G12C inhibitor Compound 478 (10% Captisol in 50 mM citrate buffer, pH 5.0), 50 mg/kg of the PARP inhibitor olaparib (10% Captisol in 50 mM citrate buffer, pH 5.0), or 100 mg/kg of KRas G12C inhibitor Compound 478 and 50 mg/kg of olaparib. Dosing stopped on day 17 for all groups due to large tumor growth in the vehicle and Olaparib only groups.

For `O=C(c1cc(Cc2n[nH]c(=O)c3ccccc23)ccc1F)N1CCN(C(=O)C2CC2)CC1` [Olaparib, 4-[[3-[4-(cyclopropanecarbonyl)piperazine-1-carbonyl]-4-fluorophenyl]methyl]-2H-phthalazin-1-one], the tumor growth inhibition is recorded as 0%. Moreover, under “Study Day 3”, the “Average Tumor Volumes” value was 451.342 mm^3. For the same molecule, the “Average Tumor Volumes” value (Study Day 6) was 558.15 mm^3. The “Average Tumor Volumes” value (Study Day 10) is reported as 776.514 mm^3. Also, the “Average Tumor Volumes” value (Study Day 13) was 848.664 mm^3. Further, for the setting “Study Day 17”, the “Average Tumor Volumes” value came to 1058.96 mm^3. Further, the “Average Tumor Volumes” value (Study Day −1 (before dosing)) worked out at 292.194 mm^3.
Take `C=C(F)C(=O)N1CCN(c2nc(OC[C@@H]3CCCN3C)nc3c2CCN(c2cccc4cccc(Cl)c24)C3)C[C@@H]1CC#N` [Compound 478, adagrasib]: the tumor growth inhibition worked out at 89%. For the same molecule, for the setting “Study Day 3”, the “Average Tumor Volumes” value is 290.578 mm^3. In addition, the “Average Tumor Volumes” value (Study Day 6) worked out at 301.744 mm^3. Where the note is “Study Day 10”, the “Average Tumor Volumes” value is reported as 326.222 mm^3. Further, the “Average Tumor Volumes” value (Study Day 13) is 345.38 mm^3. For the same molecule, the “Average Tumor Volumes” value (Study Day 17) is reported as 360.308 mm^3. Moreover, the “Average Tumor Volumes” value (Study Day −1 (before dosing)) came to 284.794 mm^3.
